# Test results as given in BindingDB's records for doi:10.7270/Q2CR5RSX (Vanderbilt Screening Center For Gpcrs, Ion Channels and …, 2009).
# Molecular target: T1, Muscarinic acetylcholine receptor M5 (Homo sapiens, UniProt P08912)
# T1 sequence (P08912 whole entry): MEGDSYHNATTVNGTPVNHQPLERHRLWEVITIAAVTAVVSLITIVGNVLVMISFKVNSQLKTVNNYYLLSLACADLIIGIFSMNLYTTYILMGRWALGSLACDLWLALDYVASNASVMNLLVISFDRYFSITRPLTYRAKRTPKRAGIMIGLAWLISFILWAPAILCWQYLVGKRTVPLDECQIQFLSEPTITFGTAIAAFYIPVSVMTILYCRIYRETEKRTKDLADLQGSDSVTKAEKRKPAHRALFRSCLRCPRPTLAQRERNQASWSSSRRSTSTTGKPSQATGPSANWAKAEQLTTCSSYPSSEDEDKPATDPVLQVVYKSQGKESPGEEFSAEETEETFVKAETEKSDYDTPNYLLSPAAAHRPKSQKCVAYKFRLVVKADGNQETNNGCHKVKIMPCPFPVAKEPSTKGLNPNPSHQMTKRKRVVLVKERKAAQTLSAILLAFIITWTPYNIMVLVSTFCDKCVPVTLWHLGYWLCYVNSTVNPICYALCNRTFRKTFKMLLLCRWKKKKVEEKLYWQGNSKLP
# Test: compound effect on ACh competition at M5, biochemical, [3H]N-methylscopolamine, acetylcholine (AID 2194)
smiles,measurement,value
COc1ccc(CN2C(=O)C(=O)c3cc(OC(F)(F)F)ccc32)cc1 [VU0238429],EC50,210 nM
